Data: patent publication US10883996B2, “Methods of identifying signaling modulators of the trimeric TNFa” (UCB BIOPHARMA SRL, priority 2015, dated 2021)
Entries after “also recorded” stand apart in the source; their conditions may differ.

Target: T1, TNFα trimer / TNFR1 (Homo sapiens, UniProt P01375)
T1 construct: human TNFα residues V77-L233 followed by two additional repeats; human TNFα residues D86-L233 linked together by Ser-Gly-Ser
Assay: Analytical size exclusion chromatography of TNFα/TNFR1/compound complexes, protocol 2
Assay type: binding
Conditions: compound 200 μM (1:10 trimers:compound); 3.5 fold excess of receptors
Protocol: Size exclusion chromatography was used to determine the number of TNFR1 receptors bound to TNFα in the absence or presence of different compounds. Compound (2) was tested under the conditions described in protocol 1 below. Compound (5) was tested as described in protocol 2.
Compound (5) was added to 20 μM of TNFα trimer at a final concentration of 200 μM (ratio of 1:10 trimers:compound) with DMSO concentration held constant at 2.0%. The sample of TNFα and compound were incubated overnight at a temperature of 4° C. Receptors at a final concentration of 35 μM were added to 10 μM trimer-compound complex (3.5 fold excess of receptors over the trimer-compound complex). The final concentration of DMSO was 1.0%. The mixture was incubated for 1 hour at 22° C.
The conditions for analytical size exclusion using HPLC were as follows: injection volume: 50 μl; Superdex 200HR 10/300, L×I.D. 30 cm×10 mm column, 13-15 μm particle size; and a buffer of 10 mM HEPES, pH 7.5, 150 mM NaCl.
The TNFα was a single polypeptide chain of trimeric human TNFα composed of human TNFα residues V77-L233 followed by two additional repeats of human TNFα residues D86-L233 linked together by Ser-Gly-Ser (sequences are based on UniProt […]). Human TNFR1 was (V43-N184)(N54D, C182S) based on sequence UniProt P19438. […]

T1 sequence (P01375 with tags, fused parts or gaps): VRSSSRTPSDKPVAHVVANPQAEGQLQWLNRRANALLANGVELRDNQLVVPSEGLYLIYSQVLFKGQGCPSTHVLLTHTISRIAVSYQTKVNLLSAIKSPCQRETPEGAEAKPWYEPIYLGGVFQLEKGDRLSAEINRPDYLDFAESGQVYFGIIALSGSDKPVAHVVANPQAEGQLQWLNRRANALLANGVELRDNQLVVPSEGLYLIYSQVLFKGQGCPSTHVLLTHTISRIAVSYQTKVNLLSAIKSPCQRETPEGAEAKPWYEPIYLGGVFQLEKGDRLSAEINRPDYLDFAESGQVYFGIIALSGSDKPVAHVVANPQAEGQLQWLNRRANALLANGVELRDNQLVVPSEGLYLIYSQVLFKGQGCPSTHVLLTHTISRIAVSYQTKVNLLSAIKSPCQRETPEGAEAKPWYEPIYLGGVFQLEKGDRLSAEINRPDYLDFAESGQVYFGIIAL

`Cc1nc2cc(F)c(-c3cnc(N4CC(O)(C(F)(F)F)C4)nc3)cn2c1[C@@H](O)c1ccccc1OC(F)F` (single isomer, unassigned) [compound (5)] was tested, and the “number of receptors binding per trimer (SEC peak position vs mutant TNFα controls)” value was “a mixture of two receptors and one receptor; also recorded: moved closer to 1 receptor bound”.
